ChEMBL document CHEMBL5143601, “Rationalizing the binding and α subtype selectivity of synthesized imidazodiazepines and benzodiazepines at GABAA receptors by using molecular docking studies” (Bioorg Med Chem Lett, 2022)

What was measured:
[1] = target: T1, GABA-A receptor; alpha-1/beta-2/gamma-2 (Homo sapiens, UniProt P14867+P18507+P47870); assay: Displacement of [3H]flunitrazepam from human recombinant alpha1beta2gamma2 GABAA receptor expressed in HEK cell membrane by competitive radioligand binding assay; format: cell membranes
T1 sequence (P14867 whole entry): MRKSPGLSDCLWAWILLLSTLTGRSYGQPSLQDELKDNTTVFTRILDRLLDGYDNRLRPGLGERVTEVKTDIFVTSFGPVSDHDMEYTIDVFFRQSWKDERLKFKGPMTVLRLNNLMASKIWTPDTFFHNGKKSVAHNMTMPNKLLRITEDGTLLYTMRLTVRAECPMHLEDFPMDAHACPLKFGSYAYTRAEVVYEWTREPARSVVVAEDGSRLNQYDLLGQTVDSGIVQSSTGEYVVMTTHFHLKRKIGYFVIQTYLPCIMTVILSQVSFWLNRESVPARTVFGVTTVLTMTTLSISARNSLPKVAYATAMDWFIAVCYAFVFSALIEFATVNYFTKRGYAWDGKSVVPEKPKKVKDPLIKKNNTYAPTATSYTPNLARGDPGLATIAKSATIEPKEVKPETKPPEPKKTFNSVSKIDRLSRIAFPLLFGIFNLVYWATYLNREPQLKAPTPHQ
T1 sequence (P47870 whole entry): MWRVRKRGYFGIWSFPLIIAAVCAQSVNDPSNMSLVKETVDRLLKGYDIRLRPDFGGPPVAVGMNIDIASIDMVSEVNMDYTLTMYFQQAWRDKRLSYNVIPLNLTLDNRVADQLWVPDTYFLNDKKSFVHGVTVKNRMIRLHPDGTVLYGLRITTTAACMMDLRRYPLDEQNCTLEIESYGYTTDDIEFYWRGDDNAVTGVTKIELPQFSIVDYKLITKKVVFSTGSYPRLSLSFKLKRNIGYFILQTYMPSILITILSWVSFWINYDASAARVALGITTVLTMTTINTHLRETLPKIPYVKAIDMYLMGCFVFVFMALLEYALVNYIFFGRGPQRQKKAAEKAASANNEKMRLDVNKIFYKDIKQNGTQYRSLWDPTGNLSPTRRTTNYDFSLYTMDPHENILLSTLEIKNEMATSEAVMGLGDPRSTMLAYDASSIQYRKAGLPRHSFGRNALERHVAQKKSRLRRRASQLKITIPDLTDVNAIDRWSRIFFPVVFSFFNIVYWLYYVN
T1 sequence (P18507 whole entry): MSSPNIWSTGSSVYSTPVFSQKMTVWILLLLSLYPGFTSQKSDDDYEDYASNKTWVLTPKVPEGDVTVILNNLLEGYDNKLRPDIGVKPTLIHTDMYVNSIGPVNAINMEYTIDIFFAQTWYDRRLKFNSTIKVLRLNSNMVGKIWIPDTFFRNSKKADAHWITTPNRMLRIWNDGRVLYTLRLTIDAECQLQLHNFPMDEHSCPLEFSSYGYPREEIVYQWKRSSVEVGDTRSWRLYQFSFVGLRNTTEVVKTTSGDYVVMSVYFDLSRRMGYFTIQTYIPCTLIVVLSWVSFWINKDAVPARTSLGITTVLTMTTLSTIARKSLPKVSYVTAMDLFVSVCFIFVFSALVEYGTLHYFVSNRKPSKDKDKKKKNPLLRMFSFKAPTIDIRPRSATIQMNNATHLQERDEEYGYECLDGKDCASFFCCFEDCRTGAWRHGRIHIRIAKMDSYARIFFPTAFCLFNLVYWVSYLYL

[2] = target: T2, GABA A receptor alpha-2/beta-2/gamma-2 (Homo sapiens, UniProt P18507+P47869+P47870); assay: Displacement of [3H]flunitrazepam from human recombinant alpha2beta2gamma2 GABAA receptor expressed in HEK cell membrane by competitive radioligand binding assay; format: cell membranes
T2 sequence (P47870 whole entry): T1 sequence (P47870 whole entry)
T2 sequence (P18507 whole entry): T1 sequence (P18507 whole entry)
T2 sequence (P47869 whole entry): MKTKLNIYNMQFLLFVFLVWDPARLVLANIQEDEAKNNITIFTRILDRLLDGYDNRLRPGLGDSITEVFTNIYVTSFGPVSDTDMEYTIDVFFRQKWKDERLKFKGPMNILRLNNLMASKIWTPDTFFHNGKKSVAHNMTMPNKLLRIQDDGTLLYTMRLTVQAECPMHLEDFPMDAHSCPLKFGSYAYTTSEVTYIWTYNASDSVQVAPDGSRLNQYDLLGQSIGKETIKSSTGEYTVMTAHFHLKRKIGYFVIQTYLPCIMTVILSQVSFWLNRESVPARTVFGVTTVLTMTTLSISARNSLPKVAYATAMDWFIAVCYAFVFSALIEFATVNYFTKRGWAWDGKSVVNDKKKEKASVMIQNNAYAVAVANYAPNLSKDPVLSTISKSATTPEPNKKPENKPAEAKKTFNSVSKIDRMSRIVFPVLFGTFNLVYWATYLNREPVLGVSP

[3] = target: T3, Gamma-aminobutyric acid receptor subunit alpha-5/beta-2/gamma-2 (Homo sapiens, UniProt P18507+P31644+P47870); assay: Displacement of [3H]flunitrazepam from human recombinant alpha5beta2gamma2 GABAA receptor expressed in HEK cell membrane by competitive radioligand binding assay; format: cell membranes
T3 sequence (P47870 whole entry): T1 sequence (P47870 whole entry)
T3 sequence (P18507 whole entry): T1 sequence (P18507 whole entry)
T3 sequence (P31644 whole entry): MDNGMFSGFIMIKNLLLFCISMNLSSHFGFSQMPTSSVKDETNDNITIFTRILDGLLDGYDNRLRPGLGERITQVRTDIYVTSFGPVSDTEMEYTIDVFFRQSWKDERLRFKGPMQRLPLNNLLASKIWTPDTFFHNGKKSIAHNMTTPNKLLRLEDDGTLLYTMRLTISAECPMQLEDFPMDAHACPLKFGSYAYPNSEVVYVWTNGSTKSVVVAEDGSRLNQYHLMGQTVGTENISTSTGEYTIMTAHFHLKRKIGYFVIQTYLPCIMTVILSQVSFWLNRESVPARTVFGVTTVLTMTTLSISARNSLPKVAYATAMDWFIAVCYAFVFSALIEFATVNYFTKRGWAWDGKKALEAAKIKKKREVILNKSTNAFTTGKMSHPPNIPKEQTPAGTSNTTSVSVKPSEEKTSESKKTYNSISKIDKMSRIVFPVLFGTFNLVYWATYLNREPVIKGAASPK

[4] = species on record: Homo sapiens; assay: Selectivity ratio of Ki for human recombinant alpha1beta2gamma2 GABAA receptor expressed in HEK cell membrane to Ki for human recombinant alpha5beta2gamma2 GABAA receptor expressed in HEK cell membrane; format: cell-based
[5] = target: T4, GABA A receptor alpha-3/beta-2/gamma-2 (Homo sapiens, UniProt P18507+P34903+P47870); assay: Displacement of [3H]flunitrazepam from human recombinant alpha3beta2gamma2 GABAA receptor expressed in HEK cell membrane by competitive radioligand binding assay; format: cell membranes
T4 sequence (P47870 whole entry): T1 sequence (P47870 whole entry)
T4 sequence (P18507 whole entry): T1 sequence (P18507 whole entry)
T4 sequence (P34903 whole entry): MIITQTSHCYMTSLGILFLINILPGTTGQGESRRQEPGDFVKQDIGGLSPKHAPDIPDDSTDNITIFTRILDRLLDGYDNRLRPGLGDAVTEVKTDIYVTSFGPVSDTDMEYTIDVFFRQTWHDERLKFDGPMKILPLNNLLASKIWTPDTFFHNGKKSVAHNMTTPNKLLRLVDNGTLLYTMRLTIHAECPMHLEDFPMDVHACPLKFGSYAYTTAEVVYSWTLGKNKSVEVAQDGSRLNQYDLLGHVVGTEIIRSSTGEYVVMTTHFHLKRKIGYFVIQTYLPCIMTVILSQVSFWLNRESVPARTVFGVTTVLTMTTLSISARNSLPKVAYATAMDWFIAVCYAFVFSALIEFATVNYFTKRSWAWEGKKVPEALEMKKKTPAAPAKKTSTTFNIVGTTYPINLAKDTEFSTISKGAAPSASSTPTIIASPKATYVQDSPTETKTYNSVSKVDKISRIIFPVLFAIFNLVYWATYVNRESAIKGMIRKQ

`C#Cc1ccc2c(c1)C(c1ccccc1)=NCc1nnc(C)n1-2` gave a Ki [1] of 36.4 nM, a Ki [2] of 25.8 nM and a Ki [3] of 5.3 nM. For the same molecule, the Ratio Ki [4] was 6.

`C#Cc1ccc2c(c1)C(c1ccccc1F)=NCC(=O)N2C` showed a Ki [1] of 3.9 nM, a Ki [2] of 1.2 nM and a Ki [5] of 3.4 nM. The Ki [3] was 0.8 nM.

With `O=C1CN=C(c2ccccc2Cl)c2cc(Br)ccc2N1` [PHENAZEPAM] the Ki [1] was 0.05 nM, the Ki [2] was 0.06 nM and the Ki [5] was 0.12 nM. For the same molecule, the Ki [3] was 0.68 nM.

With `C#Cc1ccc2c(c1)C(c1ccccc1Cl)=NCC(=O)N2C` the Ki [1] was 1.6 nM, the Ki [2] was 0.99 nM and the Ki [3] was 1.96 nM.

Molecule `CN1C(=O)CN=C(c2ccccc2)c2cc(Br)ccc21` has a Ki [1] of 9.4 nM, a Ki [2] of 9.3 nM and a Ki [5] of 31 nM. It also gave a Ki [3] of 7.7 nM.

`CN1C(=O)CN=C(c2ccccc2)c2ccccc21` gave a Ki [1] of 81 nM, a Ki [2] of 138 nM and a Ki [5] of 318 nM. The Ki [3] was 98 nM.

Molecule `C#Cc1ccc2c(c1)C(c1ccccc1Cl)=NCc1nnc(C)n1-2` has a Ki [1] of 3.3 nM, a Ki [2] of 0.6 nM and a Ki [5] of 1.9 nM. For the same molecule, the Ki [3] was 4.4 nM.

Work on `C#Cc1ccc2c(c1)C(c1ccccn1)=NCc1nnc(C)n1-2` yielded a Ki [1] of 144 nM, a Ki [2] of 81.3 nM and a Ki [5] of 104 nM. The Ki [3] was 45.6 nM.

Work on `Cc1nnc2n1-c1ccc(Br)cc1C(c1ccccn1)=NC2` yielded a Ki [1] of 7.3 nM, a Ki [2] of 6.1 nM and a Ki [5] of 5.1 nM. For the same molecule, the Ki [3] was 7.7 nM.

Work on `C[C@@H]1N=C(c2ccccc2)c2cc(Br)ccc2NC1=O` yielded a Ki [1] of 14.4 nM, a Ki [2] of 11 nM and a Ki [5] of 19.1 nM. The Ki [3] was 1.89 nM and the Ratio Ki [4] was 7.

`O=C1CN=C(c2ccccc2F)c2cc(Br)ccc2N1` gave a Ki [1] of 0.26 nM, a Ki [2] of 0.15 nM and a Ki [5] of 0.28 nM. It also gave a Ki [3] of 0.26 nM.

`C#Cc1ccc2c(c1)C(c1ccccc1)=N[C@@H](C)c1nnc(C)n1-2` gave a Ki [1] of 107 nM, a Ki [2] of 50.1 nM and a Ki [5] of 20.9 nM. For the same molecule, the Ki [3] was 8.1 nM and the Ratio Ki [4] was 13.

With `O=C1CN=C(c2ccccc2)c2ccccc2N1` [RO-052921] the Ki [1] was 288 nM, the Ki [2] was 233 nM and the Ki [5] was 350 nM. The Ki [3] was 140 nM and the Ratio Ki [4] was 2.

Work on `C#Cc1ccc2c(c1)C(c1ccccc1F)=NCc1nnc(C)n1-2` yielded a Ki [1] of 6.3 nM, a Ki [2] of 2.1 nM and a Ki [3] of 0.6 nM.

`Cc1nnc2n1-c1ccc(Br)cc1C(c1ccccc1Cl)=NC2` was tested, and the Ki [1] was 0.5 nM, the Ki [2] was 1 nM and the Ki [5] was 0.6 nM. For the same molecule, the Ki [3] was 0.4 nM.

`Cc1nnc2n1-c1ccc(Br)cc1C(c1ccccc1)=NC2` showed a Ki [1] of 2.8 nM, a Ki [2] of 0.7 nM and a Ki [3] of 0.6 nM.

Work on `Cc1nnc2n1-c1ccc(Cl)cc1C(c1ccccc1)=NC2` [ALPRAZOLAM] yielded a Ki [1] of 0.8 nM, a Ki [2] of 0.6 nM and a Ki [5] of 1.4 nM. For the same molecule, the Ki [3] was 1.5 nM.

With `C#Cc1ccc2c(c1)C(c1ccccc1)=NCC(=O)N2C` the Ki [1] was 76.3 nM, the Ki [2] was 42.1 nM and the Ki [5] was 47.4 nM. It also gave a Ki [3] of 6.8 nM and a Ratio Ki [4] of 11.

`C[C@H]1N=C(c2ccccc2)c2cc(Br)ccc2NC1=O` was tested, and the Ki [1] was greater than 3000 nM, the Ki [2] was greater than 3000 nM and the Ki [5] was greater than 3000 nM. For the same molecule, the Ki [3] was greater than 3000 nM.
